Columns and labels:
[1] = test system: PTZ-induced generalised seizures; test: Acute PTZ-induced model of generalised seizure; format: in vivo, rat
Experimental: Adult male Wistar Kyoto rats were used in the acute PTZ model of seizure (>P24, 70-110 g). Animals were housed five per cage in a heat regulated room (21° C.) on a 12:12 h day/night cycle (lights on 0800) in 50% humidity and given ad libitum access to standard laboratory chow (PCD Mod C, Special Diet Services, Wiltham, UK) and water. All procedures were undertaken during white light hours.
A PTZ (Sigma-Aldrich, Poole, UK) stock solution was made in 0.9% w/v NaCl for the experimental procedure.
PTZ antagonises GABA inhibition via binding to the t-butyl-bicycl-phosphorothionate site of GABAA receptors. Moreover, this chemically-induced model can be indicative of effects against absence seizures. PTZ (90 mg/kg) was used to induce seizures in adult male Wistar rats (n=15 per group) with experiment dose randomised using a Latin square design. Animals were placed in their 6 L Perspex tanks and allowed to acclimatise to their environment for 10 min, before receiving one of the cannabinoid doses (see Table 5) in vehicle, or volume-matched dose of vehicle alone to serve as a negative control. 60 min after test compound or vehicle administration, animals were injected with PTZ (90 mg/kg, i.p.) to induce seizures and animal behaviour was recorded for 30 min.
Videos of PTZ-induced seizures were scored offline with a standard seizure severity scale appropriate for generalised seizures (Table 6).
Videos of seizure behaviour generated from the custom built observational system were scored offline according to seizure scales appropriate for PTZ model (Table 6) using Observer Video-Pro software (Noldus, Wageningen, The Netherlands). For the PTZ model of seizure, intra- and inter-observer agreements of behaviour scoring were assessed using the reliability analysis function of the observer Video-Pro software: 1 s tolerance window; Cohen's Kappa coefficient≥0.95.
Specific markers of seizure behaviour and development were assessed and compared between vehicle control and drug groups. The latency (s) to seizure onset and the percentage of animals that developed tonic-clonic seizures was noted (see Table 6). In addition, the maximum seizure severity and the percentage mortality in each group were determined for the acute PTZ model of generalised seizure.
The effect of drug on latency to seizure onset and maximum seizure severity were assessed using Krustal-Wallis with post-hoc Mann-Whitney U-tests. Drug effects on the percentage of animals that developed tonic-clonic seizures and percentage mortality were assessed using Chi-squared with post-hoc Fisher exact tests. In all cases, P≤0.05 was considered significant.

[2] = test system: D. discoideum cell growth; test: D. discoideum growth assay; format: cell-based, Dictyostelium discoideum
Experimental: Wild type (A×2) D. discoideum cells were grown in shaking culture (in HL5 medium) for two days prior to growth assays. Cells (9900 in 495 μl of media) were added to each well of a 24 well plate and 5 μl of cannabinoid in DMSO (or DMSO only) was added to each well to achieve each described concentration (1% final DMSO concentration), and cells were maintained at 22° C. Cells were counted at 72 hours, and then every 24 hours. Quadruplicate repeats were used for each concentration.

seizures = conditions: mice, after pro-convulsant drugs or an electric current; cited from earlier work
generalized epilepsy = conditions: eight adult patients with generalized epilepsy; cited from earlier work

With C=C(C)[C@@H]1CCC(C)=C[C@H]1c1c(O)cc(CCCCC)cc1O [CBD, Cannabidiol] the “effect on percentage mortality” value ([1]; 100 mg/kg CBD (P≤0.01), 100 mg/kg CBDA (P=0.0656), CBD/CBDA ratio (P=0.0656)) was “significantly reduced”, the “effect on latency to seizure onset” value ([1]; 100 mg/kg CBD (P≤0.05), CBD/CBDA 9:1 (P≤0.05), CBDA 100 mg/kg (P=0.0929)) was “significantly increasing latency to onset” and the “median score for the maximum seizure severity” value ([1]; 100 mg/kg, PTZ 90 mg/kg i.p. 60 min after compound, scale of Table 6, n=15) was 5. For the same compound, the IC50 ([2]; Dictyostelium discoideum, secondary plot of cell density at 144 hours, read-out: growth inhibitory constant (IC50)) was 1.63 µM, the concentration blocking growth ([2]; growth over one week) was 20 µM and the “concentration significantly inhibiting cell growth (P<0.05)” value ([2]; growth over one week) was 0.5 µM. For the same compound, the prevention of seizures (seizures) was “able to prevent seizures in mice” and the reduction of seizures (generalized epilepsy) was “marked reduction of seizures in 4 of the patients”.
